Blank lines part the entries; values can stand above or below the molecule they belong to.
What was measured:
[1] = biological target: T1, JtRdhA (reductive dehalogenase) (Jhaorihella thermophila, UniProt A0A1H5TYU2); test: substrate turnover by purified enzyme, NADPH consumption and HPLC; format: biochemical
T1 construct: gene SAMN05421751_103106; full-length, N-terminal His-MBP-TEV fusion (JtRdhA^MBP), WP_104007082
T1 sequence (A0A1H5TYU2 1-1069): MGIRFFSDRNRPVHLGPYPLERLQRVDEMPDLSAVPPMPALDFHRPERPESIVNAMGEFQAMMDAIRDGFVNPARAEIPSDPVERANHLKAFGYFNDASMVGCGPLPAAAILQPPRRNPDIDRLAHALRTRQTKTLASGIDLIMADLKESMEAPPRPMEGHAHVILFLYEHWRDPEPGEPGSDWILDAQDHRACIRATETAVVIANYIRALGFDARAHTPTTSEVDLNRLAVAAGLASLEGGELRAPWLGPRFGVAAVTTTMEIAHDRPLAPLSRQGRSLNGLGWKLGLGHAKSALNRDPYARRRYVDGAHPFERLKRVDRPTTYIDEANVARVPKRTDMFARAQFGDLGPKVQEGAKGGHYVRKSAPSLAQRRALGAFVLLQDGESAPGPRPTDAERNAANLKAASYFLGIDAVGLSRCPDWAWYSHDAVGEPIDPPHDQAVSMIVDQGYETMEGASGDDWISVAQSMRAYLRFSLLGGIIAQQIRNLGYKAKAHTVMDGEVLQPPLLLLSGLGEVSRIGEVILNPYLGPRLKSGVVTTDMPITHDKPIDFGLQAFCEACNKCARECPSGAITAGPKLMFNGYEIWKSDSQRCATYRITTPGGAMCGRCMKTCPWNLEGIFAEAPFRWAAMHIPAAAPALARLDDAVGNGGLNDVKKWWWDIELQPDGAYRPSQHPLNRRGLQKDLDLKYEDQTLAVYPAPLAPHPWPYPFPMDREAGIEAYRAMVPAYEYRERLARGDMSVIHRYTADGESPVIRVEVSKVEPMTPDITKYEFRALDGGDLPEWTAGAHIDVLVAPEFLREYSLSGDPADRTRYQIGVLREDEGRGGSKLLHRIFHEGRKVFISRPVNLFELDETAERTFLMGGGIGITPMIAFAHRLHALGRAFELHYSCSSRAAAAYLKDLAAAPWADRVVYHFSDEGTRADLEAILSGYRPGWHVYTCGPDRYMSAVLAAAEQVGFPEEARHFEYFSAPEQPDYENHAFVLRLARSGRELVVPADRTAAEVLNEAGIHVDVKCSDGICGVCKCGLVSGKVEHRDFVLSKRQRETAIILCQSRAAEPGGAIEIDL

[2] = biological target: T1, JtRdhA (reductive dehalogenase); test: biphasic turnover assay, LC-MS of debrominated products; format: biochemical
[3] = biological target: T1, JtRdhA (reductive dehalogenase); test: NADPH consumption assay, Dixon plot vs 35-DB-4-OH; format: biochemical
[4] = substrate: O=C(O)c1ccc(O)c(Br)c1; test: steady-state kinetics by NADPH consumption (KM), purified enzyme; format: biochemical, Jhaorihella thermophila; settings: cobalamin, 2x [4Fe-4S], [2Fe-2S], FMN
[5] = substrate: O=C(O)c1cc(Br)c(O)c(Br)c1; test: EPR of cob(II)alamin with substrate (Br superhyperfine coupling); KM from steady-state NADPH oxidation; format: biochemical, Jhaorihella thermophila; settings: cobalamin, 2x [4Fe-4S], [2Fe-2S], FMN active site; displaces chloride, substrate bromine atoms less than […] Å from the Co2+ ion

NADPH consumption μM min^-1 [1]: 147 ± 3 µM/min
Molecule: O=C(O)Cc1ccc(O)c(Br)c1 [3-bromo-4-hydroxyphenylacetic acid]

Molecule: Oc1ccccc1I [2-Iodophenol, 2-iodophenol]
NADPH consumption μM min^-1 [1]: 106 ± 3 µM/min

Molecule: CC(C)(c1cc(Br)c(O)c(Br)c1)c1cc(Br)c(O)c(Br)c1 [compound 1, tetrabromobisphenol A]
biphasic turnover assay, LC-MS of debrominated products [2]: one of the most commonly used flame retardants TBBPA was determined to be a substrate for JtRdhA^MBP

Molecule: O=C(O)c1cc(Cl)c(O)c(Cl)c1 [35-DC-4-OH, 3,5-dichloro-4-hydroxybenzoic acid]
Ki [3]: 13.7 ± 3.6 µM

NADPH consumption μM min^-1 [1]: 124 ± 8 µM/min
Molecule: O=C(O)c1cc(I)c(O)c(I)c1 [3,5 Diiodo-4-hydroxybenzoic acid]

B1: JtRdhA (reductive dehalogenase) (Jhaorihella thermophila) (protein)
chain: MGIRFFSDRNRPVHLGPYPLERLQRVDEMPDLSAVPPMPALDFHRPERPESIVNAMGEFQAMMDAIRDGFVNPARAEIPSDPVERANHLKAFGYFNDASMVGCGPLPAAAILQPPRRNPDIDRLAHALRTRQTKTLASGIDLIMADLKESMEAPPRPMEGHAHVILFLYEHWRDPEPGEPGSDWILDAQDHRACIRATETAVVIANYIRALGFDARAHTPTTSEVDLNRLAVAAGLASLEGGELRAPWLGPRFGVAAVTTTMEIAHDRPLAPLSRQGRSLNGLGWKLGLGHAKSALNRDPYARRRYVDGAHPFERLKRVDRPTTYIDEANVARVPKRTDMFARAQFGDLGPKVQEGAKGGHYVRKSAPSLAQRRALGAFVLLQDGESAPGPRPTDAERNAANLKAASYFLGIDAVGLSRCPDWAWYSHDAVGEPIDPPHDQAVSMIVDQGYETMEGASGDDWISVAQSMRAYLRFSLLGGIIAQQIRNLGYKAKAHTVMDGEVLQPPLLLLSGLGEVSRIGEVILNPYLGPRLKSGVVTTDMPITHDKPIDFGLQAFCEACNKCARECPSGAITAGPKLMFNGYEIWKSDSQRCATYRITTPGGAMCGRCMKTCPWNLEGIFAEAPFRWAAMHIPAAAPALARLDDAVGNGGLNDVKKWWWDIELQPDGAYRPSQHPLNRRGLQKDLDLKYEDQTLAVYPAPLAPHPWPYPFPMDREAGIEAYRAMVPAYEYRERLARGDMSVIHRYTADGESPVIRVEVSKVEPMTPDITKYEFRALDGGDLPEWTAGAHIDVLVAPEFLREYSLSGDPADRTRYQIGVLREDEGRGGSKLLHRIFHEGRKVFISRPVNLFELDETAERTFLMGGGIGITPMIAFAHRLHALGRAFELHYSCSSRAAAAYLKDLAAAPWADRVVYHFSDEGTRADLEAILSGYRPGWHVYTCGPDRYMSAVLAAAEQVGFPEEARHFEYFSAPEQPDYENHAFVLRLARSGRELVVPADRTAAEVLNEAGIHVDVKCSDGICGVCKCGLVSGKVEHRDFVLSKRQRETAIILCQSRAAEPGGAIEIDL
notes: full-length, N-terminal His-MBP-TEV fusion (JtRdhA^MBP), WP_104007082
Km [4]: 21 ± 0.2 µM
Km [5]: 19 ± 0.7 µM

Source: paper PMC10463259, “Efficient NADPH-dependent dehalogenation afforded by a self-sufficient reductive dehalogenase” (The Journal of Biological Chemistry, 2023)
